We go through 15 compounds from patent publication US11111247B2, “Pyrazolopyrimidine compounds and uses thereof” (Incyte Corporation, priority 2018, dated 2021).

SMILES strings stand for the structures. Read-outs that look alike come from different tables or passages of the source.

One test addresses ALK2 (Homo sapiens (Human), UniProt Q04771). As to the kind of experiment: ALK2 Cellular Assay (phospho SMAD1 HTRF, BMP-7 stimulated HeLa cells). It counts as cell-based. To be noted: read-out: ALK2 Cellular Assay PSMAD. The method, then: HeLa cells were cultured in MEM media with 10% FBS. […] HeLa cells were plated in 96 well flat bottomed plate at 50,000 cells per well and incubated overnight. Next day, media was removed and 50 μL of fresh complete media was added. 5 μL compound was added to cells (3 μM final concentration at highest) and incubated for 60 min at 37° C. 200 ng/ml BMP-7 was added and incubated for 30 min at 37° C. After incubation, the media was removed, washed 2×PBS, and proceeded with HTRF kit according to Cisbio HTRF kit instructions for measuring the Phospho SMAD1 (S463/S465). Finally, both the donor and acceptor were added into 384 well plates and incubated at room temperature overnight and the HTRF signal was measured via Pherastar the next day.

The next test deals with FGFR3 (UP) (Homo sapiens (Human), UniProt P22607). Description: FGFR Enzymatic Assay, FGFR3 un-phosphorylated.
In the next test the target is FGFR2 (P) (Homo sapiens (Human), UniProt P21802). As to the kind of experiment: FGFR Enzymatic Assay, FGFR2 phosphorylated. Conditions: phosphorylated enzyme, ATP near or below Km.
Another test deals with FGFR1 (UP) (Homo sapiens (Human), UniProt P11362). Description: FGFR Enzymatic Assay, FGFR1 un-phosphorylated.
Another test concerns the target ALK2 (aa 147-end) (Homo sapiens (Human), UniProt Q04771). As to the kind of experiment: ALK2 HTRF Assay. It counts as biochemical. The method, then: The enzymatic assays were conducted in white 384-well polystyrene plates in a final volume of 8 μL. The inhibitors were serially diluted in DMSO and added to the plate wells prior to addition of the other reaction components. The assays were carried out at 25° C. in the assay buffer (50 mM HEPES, pH 7.1, 10% Glycerol, 0.01% Brij50, 10 mM MgCl2, 1 mM EGTA, 5 mM DTT, and 0.01% BSA), containing 50 nM LANCE Ultra ULight™-DNA Topoisomerase 2-alpha peptide (Perkin Elmer TRF0130), and 3 uM, 100 uM or 1 mM ATP (as specified). […] The reaction was read on a PHERAstar FS plate reader (BMG Labtech). IC50 determination was performed by fitting percent control activity versus the log of the inhibitor concentration using the IDBS XLFit and GraphPad Prism 5.0 software.

Another test deals with RT112 cells. Description: Luminescent Viability Assay (LVA, FGFR3). It counts as cell-based. To be noted: Homo sapiens, RT-112, 72 h, 3 days, CellTiter-Glo. The method, then: RT112 cells were purchased from ATCC (Manassas, Va.) and maintained in RPMI, 10% FBS (Gibco/Life Technologies). To measure the effect of test compounds on the viability of cells, the cells were plated with RPMI 10% FBS (5×10^3 cells/well/in 50 μL) into black 96-well Greiner polystyrene in the presence or absence of 50 μl of a concentration range of test compounds. After 3 days, 100 μl of CellTiter-Glo Reagent (Promega) was added. Luminescence was read with a TopCount (PerkinElmer). IC50 determination was performed by fitting the curve of percent inhibition versus the log of the inhibitor concentration using the GraphPad Prism 5.0 software.

Setting [1] is: HeLa cells, 200 ng/ml BMP-7, Phospho SMAD1 (S463/S465) HTRF.
Setting [2] is: read-out: FGFR3 (UP) IC50, un-phosphorylated enzyme, ATP near or below Km.
[3] abbreviates: read-out: FGFR1 (UP) IC50, un-phosphorylated enzyme, ATP near or below Km.
Where [4] appears, read: read-out: ALK2 3 μM IC50, 3 uM ATP.
The mark [5] stands for this setting: read-out: ALK2 100 μM IC50, 100 uM ATP.

ALK2 (aa 147-end), sequence (Q04771 147-509): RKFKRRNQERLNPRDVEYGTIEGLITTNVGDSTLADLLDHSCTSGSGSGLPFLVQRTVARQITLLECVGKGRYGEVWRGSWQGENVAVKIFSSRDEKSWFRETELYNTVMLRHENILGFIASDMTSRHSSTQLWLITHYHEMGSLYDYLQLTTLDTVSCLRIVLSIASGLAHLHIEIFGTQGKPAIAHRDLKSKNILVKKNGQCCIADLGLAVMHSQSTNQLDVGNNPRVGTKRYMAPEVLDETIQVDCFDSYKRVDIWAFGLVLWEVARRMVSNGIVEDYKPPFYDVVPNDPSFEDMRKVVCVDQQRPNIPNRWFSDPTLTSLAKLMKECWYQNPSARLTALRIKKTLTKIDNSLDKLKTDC
ALK2, sequence (Q04771 21-509): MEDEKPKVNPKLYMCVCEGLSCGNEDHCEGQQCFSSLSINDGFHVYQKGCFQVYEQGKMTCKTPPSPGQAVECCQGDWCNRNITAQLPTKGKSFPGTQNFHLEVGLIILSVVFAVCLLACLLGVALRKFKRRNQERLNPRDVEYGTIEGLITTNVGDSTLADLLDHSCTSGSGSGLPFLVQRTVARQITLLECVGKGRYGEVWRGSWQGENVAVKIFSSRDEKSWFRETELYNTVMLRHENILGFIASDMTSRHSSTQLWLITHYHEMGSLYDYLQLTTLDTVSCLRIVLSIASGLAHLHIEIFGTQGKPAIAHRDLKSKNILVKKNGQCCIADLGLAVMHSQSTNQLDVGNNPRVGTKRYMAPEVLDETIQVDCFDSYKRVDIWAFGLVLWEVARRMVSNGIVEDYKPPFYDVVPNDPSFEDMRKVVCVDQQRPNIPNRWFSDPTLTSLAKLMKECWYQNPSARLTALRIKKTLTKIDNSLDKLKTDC
FGFR2 (P), sequence (P21802 22-821): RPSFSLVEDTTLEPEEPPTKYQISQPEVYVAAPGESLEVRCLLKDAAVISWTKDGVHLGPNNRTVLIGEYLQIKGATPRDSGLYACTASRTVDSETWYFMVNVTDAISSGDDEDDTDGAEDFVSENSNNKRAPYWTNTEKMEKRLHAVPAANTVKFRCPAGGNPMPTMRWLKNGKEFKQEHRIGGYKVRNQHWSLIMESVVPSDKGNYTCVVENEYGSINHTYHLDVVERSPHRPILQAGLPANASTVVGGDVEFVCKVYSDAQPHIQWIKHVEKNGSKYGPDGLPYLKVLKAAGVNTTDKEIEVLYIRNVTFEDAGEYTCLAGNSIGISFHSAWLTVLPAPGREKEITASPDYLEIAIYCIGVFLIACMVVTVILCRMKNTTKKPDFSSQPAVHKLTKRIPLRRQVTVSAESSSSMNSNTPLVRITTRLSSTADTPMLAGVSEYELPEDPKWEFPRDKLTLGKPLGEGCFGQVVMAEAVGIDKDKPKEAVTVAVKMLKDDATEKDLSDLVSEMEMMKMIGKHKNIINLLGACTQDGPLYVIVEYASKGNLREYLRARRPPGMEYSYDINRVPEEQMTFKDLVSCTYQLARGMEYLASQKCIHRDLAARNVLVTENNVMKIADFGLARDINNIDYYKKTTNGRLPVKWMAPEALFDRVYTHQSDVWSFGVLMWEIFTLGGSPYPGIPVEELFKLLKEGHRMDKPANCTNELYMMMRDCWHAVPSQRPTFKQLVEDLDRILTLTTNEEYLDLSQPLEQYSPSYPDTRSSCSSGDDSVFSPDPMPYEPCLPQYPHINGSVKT
FGFR1 (UP), sequence (P11362 22-822): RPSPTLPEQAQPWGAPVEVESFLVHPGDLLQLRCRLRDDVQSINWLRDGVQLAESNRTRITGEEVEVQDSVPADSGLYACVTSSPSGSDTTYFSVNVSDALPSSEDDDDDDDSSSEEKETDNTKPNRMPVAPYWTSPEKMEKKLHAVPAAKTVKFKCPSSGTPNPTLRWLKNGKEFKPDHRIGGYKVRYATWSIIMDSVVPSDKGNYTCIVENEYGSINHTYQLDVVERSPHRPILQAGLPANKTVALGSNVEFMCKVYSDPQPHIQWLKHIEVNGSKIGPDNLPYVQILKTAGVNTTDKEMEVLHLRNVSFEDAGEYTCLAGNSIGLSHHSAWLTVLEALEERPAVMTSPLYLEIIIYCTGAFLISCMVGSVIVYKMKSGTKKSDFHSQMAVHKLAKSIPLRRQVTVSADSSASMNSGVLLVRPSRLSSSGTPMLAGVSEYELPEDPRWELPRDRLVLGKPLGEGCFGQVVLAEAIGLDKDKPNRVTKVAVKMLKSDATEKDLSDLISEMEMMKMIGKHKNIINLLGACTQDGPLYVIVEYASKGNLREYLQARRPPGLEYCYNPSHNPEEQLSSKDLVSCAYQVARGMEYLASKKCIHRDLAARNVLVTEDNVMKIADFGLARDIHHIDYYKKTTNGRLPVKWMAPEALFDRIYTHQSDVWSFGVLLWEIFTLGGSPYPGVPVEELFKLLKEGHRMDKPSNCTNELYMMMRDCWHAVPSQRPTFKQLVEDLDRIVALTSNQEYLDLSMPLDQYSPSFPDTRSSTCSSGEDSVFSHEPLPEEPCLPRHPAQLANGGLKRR
FGFR3 (UP), sequence (P22607 23-806): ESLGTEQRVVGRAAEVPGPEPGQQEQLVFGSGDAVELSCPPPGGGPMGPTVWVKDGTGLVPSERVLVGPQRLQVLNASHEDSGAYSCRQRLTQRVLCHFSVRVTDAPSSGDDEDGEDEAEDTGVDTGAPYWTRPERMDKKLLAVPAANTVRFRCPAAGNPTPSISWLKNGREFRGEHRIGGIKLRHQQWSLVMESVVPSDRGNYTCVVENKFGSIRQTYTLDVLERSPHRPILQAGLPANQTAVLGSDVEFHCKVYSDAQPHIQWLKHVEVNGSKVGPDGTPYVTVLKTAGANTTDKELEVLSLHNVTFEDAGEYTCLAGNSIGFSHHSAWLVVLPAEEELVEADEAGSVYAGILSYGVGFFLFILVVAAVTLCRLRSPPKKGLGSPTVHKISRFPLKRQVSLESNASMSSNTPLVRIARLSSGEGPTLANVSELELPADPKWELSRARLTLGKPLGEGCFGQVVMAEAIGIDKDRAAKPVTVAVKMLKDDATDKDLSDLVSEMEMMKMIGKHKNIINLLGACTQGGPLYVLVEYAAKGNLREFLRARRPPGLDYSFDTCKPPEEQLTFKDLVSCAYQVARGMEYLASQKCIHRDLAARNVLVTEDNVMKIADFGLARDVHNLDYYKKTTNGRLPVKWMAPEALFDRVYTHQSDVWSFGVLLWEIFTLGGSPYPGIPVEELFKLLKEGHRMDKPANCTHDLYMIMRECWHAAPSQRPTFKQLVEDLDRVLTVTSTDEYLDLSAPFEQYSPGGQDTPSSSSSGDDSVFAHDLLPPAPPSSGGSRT
Procedure for FGFR1 (UP): (§1) The inhibitor potency of the exemplified compounds was determined in an enzyme discontinuous assay that measures peptide phosphorylation using FRET measurements to detect product formation. Inhibitors were serially diluted in DMSO and a volume of 0.2 μL was transferred to the wells of a 384-well plate. For the isoforms of FGFR (−1, −2, −3 wild-type and mutant isoforms, −4) including phosphorylated (P) and un-phosphorylated (UP) proteins, a 5 μL/well volume of enzyme diluted in assay buffer (50 mM HEPES, 10 mM MgCl2, 1 mM EGTA, 0.01% Tween-20, 5 mM DTT, pH 7.5) was added to the plate and pre-incubated with inhibitor for 5 to 15 minutes at ambient temperature. Appropriate controls (enzyme blank and enzyme with no inhibitor) were included on the plate. The reaction was initiated by the addition of a 5 μL/well volume containing both biotinylated [sequence] […] The plate was allowed to equilibrate for −10 minutes at ambient temperature before scanning on a PheraStar plate reader (BMG Labtech) instrument.
(§2) Either GraphPad prism or XLfit was used to analyze the data. The IC50 values were derived by fitting the data to a four parameter logistic equation producing a sigmoidal dose-response curve with a variable Hill coefficient. Prism equation: Y=Bottom+(Top−Bottom)/(1+10^((LogIC50−X)*Hill slope)); XLfit equation: Y=(A+((B−A)/(1+((X/C)^D)))) where X is the logarithm of inhibitor concentration and Y is the response.
Procedure for FGFR2 (P): as §1, §2
Procedure for FGFR3 (UP): as §1, §2

As to `CC(C)C(=O)N1C[C@@H](C)N(c2ncc3[nH]nc(-c4ccc(N5CCN[C@H](C)C5)nc4)c3n2)[C@@H](C)C1` [Example 5, 1-((3R,5S)-3,5-Dimethyl-4-(3-(6-((R)-3-methylpiperazin-1-yl)pyridin-3-yl)-1H-pyrazolo[4,3-d]pyrimidin-5-yl)piperazin-1-yl)-2-methylpropan-1-one], the IC50 on ALK2 (setting [1]) was 500 to 2000 nM; on FGFR3 (UP) (setting [2]), over 2000 nM; at FGFR2 (P) (read-out: FGFR2 (P) IC50), over 2000 nM; on FGFR1 (UP) (setting [3]) it was over 2000 nM; against ALK2 (aa 147-end) (ALK2 100 μM IC50, 100 uM ATP), 100 to 500 nM; against ALK2 (aa 147-end) (ALK2 1 mM IC50, 1 mM ATP) it was 100 to 500 nM. For the same compound, at ALK2 (aa 147-end) (setting [4]), the IC50 was under 100 nM.

As to `CC(C)NC(=O)N1C[C@@H](C)N(c2ncc3[nH]nc(-c4ccc(N5CCN[C@H](C)C5)nc4)c3n2)[C@@H](C)C1` [Example 7, (3R,5S)—N-isopropyl-3,5-dimethyl-4-(3-(6-((R)-3-methylpiperazin-1-yl)pyridin-3-yl)-1H-pyrazolo[4,3-d]pyrimidin-5-yl)piperazine-1-carboxamide], the IC50 lay within 100 to 500 nM at ALK2 (setting [1]); 500 to 2000 nM at FGFR3 (UP); 500 to 2000 nM against FGFR2 (P) (FGFR2 (P) IC50 (nM)); 500 to 2000 nM at FGFR1 (UP); 100 to 500 nM against ALK2 (aa 147-end) (ALK2 100 μM IC50, 100 uM ATP); 100 to 500 nM against ALK2 (aa 147-end) (ALK2 1 mM IC50, 1 mM ATP). Besides, the IC50 on ALK2 (aa 147-end) (setting [4]) is under 100 nM.

As for `C[C@@H]1CN(c2ccc(-c3n[nH]c4cnc(N5[C@@H]6CC[C@H]5CN(c5ccc(C#N)cc5)C6)nc34)cn2)CCN1` [Example 15, 4-((1R,5S)-8-(3-(6-((R)-3-Methylpiperazin-1-yl)pyridin-3-yl)-1H-pyrazolo[4,3-d]pyrimidin-5-yl)-3,8-diazabicyclo[3.2.1]octan-3-yl)benzonitrile], the IC50 on ALK2 was 500 to 2000 nM; at FGFR3 (UP) (setting [2]), over 2000 nM; at FGFR2 (P) (read-out: FGFR2 (P) IC50), over 2000 nM; on FGFR1 (UP) (setting [3]), over 2000 nM; on ALK2 (aa 147-end) (ALK2 100 μM IC50, 100 uM ATP) it was 100 to 500 nM; against ALK2 (aa 147-end) (ALK2 1 mM IC50, 1 mM ATP), 500 to 2000 nM. Moreover, the IC50 at ALK2 (aa 147-end) (setting [4]) is under 100 nM.

On to `C[C@@H]1CN(c2ccc(-c3n[nH]c4cnc(N5CCc6c(ncn6C)C5)nc34)cn2)CCN1` [Example 18, (R)-5-(1-Methyl-1,4,6,7-tetrahydro-5H-imidazo[4,5-c]pyridin-5-yl)-3-(6-(3-methylpiperazin-1-yl)pyridin-3-yl)-1H-pyrazolo[4,3-d]pyrimidine], for which the IC50 on ALK2 (setting [1]) is 100 to 500 nM; on FGFR3 (UP), 100 to 500 nM; against FGFR2 (P) (FGFR2 (P) IC50 (nM)), 100 to 500 nM; against FGFR1 (UP), 100 to 500 nM; on ALK2 (aa 147-end) (ALK2 1 mM IC50, 1 mM ATP) it was 100 to 500 nM; at ALK2 (aa 147-end) (setting [4]), under 100 nM. At ALK2 (aa 147-end) (setting [5]), the IC50 is under 100 nM.

As for `Cc1cnc2n1CCN(c1ncc3[nH]nc(-c4ccc(N5CCN[C@H](C)C5)nc4)c3n1)C2` [Example 19, (R)-5-(3-Methyl-5,6-dihydroimidazo[1,2-a]pyrazin-7(8H)-yl)-3-(6-(3-methylpiperazin-1-yl)pyridin-3-yl)-1H-pyrazolo[4,3-d]pyrimidine], the IC50 is 100 to 500 nM on ALK2 (setting [1]); 100 to 500 nM against FGFR3 (UP); 100 to 500 nM at FGFR2 (P) (FGFR2 (P) IC50 (nM)); 500 to 2000 nM at FGFR1 (UP); 100 to 500 nM at ALK2 (aa 147-end) (ALK2 1 mM IC50, 1 mM ATP); under 100 nM at ALK2 (aa 147-end) (setting [4]). The IC50 at ALK2 (aa 147-end) (setting [5]) is under 100 nM.

As for `CCC1C(=O)N(C)CCN1c1ncc2[nH]nc(-c3cnn(C)c3)c2n1` (stereo not drawn) [Example 39, 3-Ethyl-1-methyl-4-(3-(1-methyl-1H-pyrazol-4-yl)-1H-pyrazolo[4,3-d]pyrimidin-5-yl)piperazin-2-one], the IC50 is 100 to 500 nM in the test with RT112 cells, under 100 nM at FGFR3 (UP) (setting [2]), under 100 nM on FGFR2 (P) (read-out: FGFR2 (P) IC50) and 100 to 500 nM against FGFR1 (UP).

For `Cn1cc(-c2n[nH]c3cnc(N4CCc5ncsc5C4)nc23)cn1` [Example 42, 5-(3-(1-Methyl-1H-pyrazol-4-yl)-1H-pyrazolo[4,3-d]pyrimidin-5-yl)-4,5,6,7-tetrahydrothiazolo[5,4-c]pyridine], the IC50 with RT112 cells was 100 to 500 nM; at FGFR3 (UP) (setting [2]), under 100 nM; on FGFR2 (P) (FGFR2 (P) IC50 (nM)) it was 100 to 500 nM; against FGFR1 (UP) it was 500 to 2000 nM.

For the compound `CC1C(=O)N(CC(F)F)CCN1c1ncc2[nH]nc(-c3cnn(C)c3)c2n1` (stereo not drawn) [Example 46, 1-(2,2-Difluoroethyl)-3-methyl-4-(3-(1-methyl-1H-pyrazol-4-yl)-1H-pyrazolo[4,3-d]pyrimidin-5-yl)piperazin-2-one], the IC50 was 100 to 500 nM in the test with RT112 cells, under 100 nM on FGFR3 (UP) (setting [2]), under 100 nM at FGFR2 (P) (read-out: FGFR2 (P) IC50) and 100 to 500 nM on FGFR1 (UP).

Turning to `CC(C)N1CCN(c2ncc3[nH]nc(-c4cnn(C)c4)c3n2)C(C)C1=O` (stereo not drawn) [Example 47, 1-Isopropyl-3-methyl-4-(3-(1-methyl-1H-pyrazol-4-yl)-1H-pyrazolo[4,3-d]pyrimidin-5-yl)piperazin-2-one], the IC50 with RT112 cells is 500 to 2000 nM; on FGFR3 (UP) (setting [2]) it was under 100 nM; against FGFR2 (P) (FGFR2 (P) IC50 (nM)), 100 to 500 nM; at FGFR1 (UP), 500 to 2000 nM.

As to `CN(C)C(=O)N1CCC(n2cc(-c3n[nH]c4cnc(N5C6CCC5C(=O)N(C)C6)nc34)cn2)CC1` (stereo not drawn) [Example 56, N,N-Dimethyl-4-(4-(5-(3-methyl-2-oxo-3,8-diazabicyclo[3.2.1]octan-8-yl)-1H-pyrazolo[4,3-d]pyrimidin-3-yl)-1H-pyrazol-1-yl)piperidine-1-carboxamide], the IC50 is 500 to 2000 nM with RT112 cells, under 100 nM on FGFR3 (UP) (setting [2]), under 100 nM on FGFR2 (P) (read-out: FGFR2 (P) IC50) and 100 to 500 nM at FGFR1 (UP).

On to `CN1CC2CCC(C1=O)N2c1ncc2[nH]nc(-c3cnn(-c4cccnc4)c3)c2n1` (stereo not drawn) [Example 69, 3-Methyl-8-(3-(1-(pyridin-3-yl)-1H-pyrazol-4-yl)-1H-pyrazolo[4,3-d]pyrimidin-5-yl)-3,8-diazabicyclo[3.2.1]octan-2-one], for which the IC50 was 100 to 500 nM with RT112 cells, under 100 nM on FGFR3 (UP) (setting [2]), under 100 nM on FGFR2 (P) (read-out: FGFR2 (P) IC50) and under 100 nM at FGFR1 (UP) (setting [3]).

For `CN1CC2CCC(C1=O)N2c1ncc2[nH]nc(-c3cnn(-c4cncc(C#N)c4)c3)c2n1` (stereo not drawn) [Example 73, 5-(4-(5-(3-Methyl-2-oxo-3,8-diazabicyclo[3.2.1]octan-8-yl)-1H-pyrazolo[4,3-d]pyrimidin-3-yl)-1H-pyrazol-1-yl)nicotinonitrile], the IC50 in the test with RT112 cells was 500 to 2000 nM; on FGFR3 (UP) (setting [2]), under 100 nM; on FGFR2 (P) (read-out: FGFR2 (P) IC50), under 100 nM; against FGFR1 (UP), 100 to 500 nM.

As to `CN1CC2CCC(C1=O)N2c1ncc2[nH]nc(-c3cnn(-c4ccc(C#N)nc4)c3)c2n1` (stereo not drawn) [Example 74, 5-(4-(5-(3-Methyl-2-oxo-3,8-diazabicyclo[3.2.1]octan-8-yl)-1H-pyrazolo[4,3-d]pyrimidin-3-yl)-1H-pyrazol-1-yl)picolinonitrile], the IC50 was 100 to 500 nM with RT112 cells, under 100 nM on FGFR3 (UP) (setting [2]), under 100 nM at FGFR2 (P) (read-out: FGFR2 (P) IC50) and under 100 nM on FGFR1 (UP) (setting [3]).

On to `Cc1cc(C#N)ccc1-n1cc(-c2n[nH]c3cnc(N4C5CCC4C(=O)N(C)C5)nc23)cn1` (stereo not drawn) [Example 77, 3-Methyl-4-(4-(5-(3-methyl-2-oxo-3,8-diazabicyclo[3.2.1]octan-8-yl)-1H-pyrazolo[4,3-d]pyrimidin-3-yl)-1H-pyrazol-1-yl)benzonitrile], for which the IC50 was 500 to 2000 nM with RT112 cells, under 100 nM on FGFR3 (UP) (setting [2]), 100 to 500 nM against FGFR2 (P) (FGFR2 (P) IC50 (nM)) and 500 to 2000 nM at FGFR1 (UP).

For `CN1CC2CCC(C1=O)N2c1ncc2[nH]nc(-c3cnn(-c4ccc(C#N)c(F)c4)c3)c2n1` (stereo not drawn) [Example 78, 2-Fluoro-4-(4-(5-(3-methyl-2-oxo-3,8-diazabicyclo[3.2.1]octan-8-yl)-1H-pyrazolo[4,3-d]pyrimidin-3-yl)-1H-pyrazol-1-yl)benzonitrile], the IC50 is 100 to 500 nM in the test with RT112 cells, under 100 nM on FGFR3 (UP) (setting [2]), under 100 nM on FGFR2 (P) (read-out: FGFR2 (P) IC50) and 100 to 500 nM at FGFR1 (UP).
